According to patent publication US20250319115A1, “Compositions and Methods for Modulating Cytokines” (Flagship Pioneering Innovations VII, LLC, priority 2022, published 2025):

What was measured:
[1] = test system: IL-15 signaling pathway; experiment: HEK-Blue IL-15 SEAP reporter assay; format: cell-based
Experimental: (§1) The effects of putative inhibitors on pro-inflammatory cytokine pathways are assessed using HEK-Blue cells engineered for the detection of bioactive cytokines via activation of JAK/STAT pathways and subsequent expression of the SEAP reporter gene. Cells are treated with their relevant cytokines+/−peptides or control antibodies, and 20 hours after treatment activation of the relevant cytokine receptor is determined via SEAP expression through mixing cell supernatants with a Quanti-Blue colorimetric reagent and measuring optical density at 600 nm.
(§2) Reporter lines HEK-Blue TL-4/TL-15/IFN-alpha were cultured in DMEM with GlutaMAX and 10% HI FBS (Gibco). […] After 24 hours, cells were treated with 10 μL of their relevant cytokines (StemCell Technologies) at the previously determined EC75 for activation (1.164 ng/mL for HEK-Blue IL-4, 2.26 ng/mL for HEK-Blue IL-15, and 0.456 ng/mL for HEK-Blue IFN-alpha), with or without 10 μL of peptides (5 uM final concentration) or control antibodies (1 ug/well). […]
(§3) 20-22 hours after treatment, 20 μL of the cell supernatants were collected and transferred to 96-well white flat opaque-bottom plates (Costar) and each sample was mixed with 180 μL of Quanti-Blue reagent. […] Assay plates were then removed from the incubator and the optical density of each well was measured at 600 nm on a GloMax plate reader. […]

[2] = test system: IL-4 signaling pathway; experiment: HEK-Blue IL-4 SEAP reporter assay; format: cell-based
Experimental: as §1
Reporter lines HEK-Blue TL-4/TL-15/IFN-alpha were cultured in DMEM with GlutaMAX and 10% HI FBS (Gibco). Cells were seeded into black 96-well optical clear flat-bottomed PhenoPlates at densities of 25000 cells/well and 100 uL/well and allowed to rest overnight in a 37 C incubator with 5% CO2. After 24 hours, cells were treated with 10 μL of their relevant cytokines (StemCell Technologies) at the previously determined EC75 for activation (1.164 ng/mL for HEK-Blue IL-4, 2.26 ng/mL for HEK-Blue IL-15, and 0.456 ng/mL for HEK-Blue IFN-alpha), with or without 10 μL of peptides (5 uM final concentration) or control antibodies (1 ug/well). Cells were kept overnight in a 37 C incubator with 5% C02.
20-22 hours after treatment, 20 μL of the cell supernatants were collected and transferred to 96-well white flat opaque-bottom plates (Costar) and each sample was mixed with 180 μL of Quanti-Blue reagent. Colorimetric reactions were allowed to develop in a 37 C incubator with 5% C02 for a certain duration of time (3 hours for HEK-Blue IL-4, 2 hours for HEK-Blue IL-15, and 1 hour for IFN-alpha). Assay plates were then removed from the incubator and the optical density of each well was measured at 600 nm on a GloMax plate reader. Relative activation of the cytokine signaling pathway in question was determined by ratioing the optical density of each sample to the average optical density for the cytokine-only treated cells from the same plate.

[3] = test system: IFN-alpha signaling pathway; experiment: HEK-Blue IFN-alpha SEAP reporter assay; format: cell-based
Experimental: as §1, §2, §3

[4] = test system: Peripheral Blood Mononuclear Cells (PBMCs); experiment: single cell RNA-seq of PBMCs treated with target protein; format: cell-based, human; settings: 10 μM, 24 hours, vs scrambled protein control
Experimental: (§4) To determine the effect of the Target Protein on TLR activity, the Target Protein, irrelevant proteins, and controls were applied+/−established TLR agonists to a commercial reporter cell line which monitors the two main signal transduction pathways that respond to TLR activation. To determine which primary, human, immune cells are most responsive to the Target Proteins, the Target Proteins were applied to Peripheral Blood Mononuclear Cells (PBMCs) and then 24 hours later the PBMCs were subjected to single cell RNA-seq.
scRNA-seq: From example: Shifts in cell populations after treatment with Target Proteins are assessed by single cell RNA-seq (scRNA-seq). Target proteins (e.g., listed in Table 1) are synthesized through Fluorenylmethyloxycarbonyl (Fmoc) protection group chemistry using Solid Phase Peptide Synthesis (SPPS). […]
Post sequencing, reads are aligned to the human reference genome (GENCODE34/GRCH38). Reads are demultiplexed using DNA-barcoded antibodies and run through quality control (g. doublets are removed, singlet cells are selected with less than 15% mitochondria contamination at RNA levels and reads contain higher than 500 genes). […]
scRNA-seq: From example: Shifts in cell populations after treatment with Target Proteins are assessed by single cell RNA-seq (scRNA-seq). […]

[5] = test system: Interferon Regulatory Factor (IRF) pathway; experiment: Dual Reporter Assay: NF-kB-SEAP and IRF-Lucia luciferase reporter monocyte (THP1) cells +/- TLR agonists; format: cell-based, human
Experimental: as §4
Dual Reporter Assay: NF-kB-SEAP and IRF-Lucia luciferase reporter monocyte (THP1) cells (InvivoGen) are cultured in RPMI 1640 media supplemented with HEPES buffer (10 mM), sodium pyruvate (1 mM), glucose (4.5 g/L), fetal bovine serum (10%), penicillin (100 U/mL), streptomycin ([…]), and 2-mercaptoethanol (0.05 mM). THP1 cells are treated with 100 ng/mL LPS (Sigma-Aldrich) for 24 hrs, the target protein (final conc. 10 μM), or left untreated.
After treatment, THP1 cells are cultured for 24 hrs and then assayed for reporter activity. Both reporter proteins are measurable in the cell culture supernatant when using QUANTI-Blue (InvivoGen), a SEAP detection reagent, and QUANTI-Luc (InvivoGen), a luciferase detection reagent. QUANTI-Blue is a colorimetric enzyme assay developed to determine any alkaline phosphatase activity in a biological sample, such as cell culture supernatant. QUANTI-Luc is a lyophilized assay reagent containing all the components required to quantitatively measure the activity of Lucia Luciferase other coelenterazine-utilizing luciferases. Increased reporter activity after treatment with target protein is observed in cells where the target protein is immune stimulating. Additionally, decreased reporter activity after treatment with the target protein is observed in cells where the target protein is immune dampening.
as §4, with “proteins” for “proteins,”

[6] = peptide 5 uM, cytokine at EC75, SEAP OD 600 nm
[7] = THP-1 dual reporter cells, protein 10 μM vs scramble protein, 24 hours

## SEQ ID NO: 1238_L8V: novel peptide capable of inhibiting pro-inflammatory cytokine pathways (LVVRWAVVVFRSSTAALPRAAEAARRSEKWPKTSALGRRS; listed as Homo sapiens)
[1]; [6]
  Relative activity (compared to cytokine only controls), Cytokine IL-15: −70%
[2]; FIG. 9
  inhibitor of the IL-4 signaling pathway (grade in words): strong

## SEQ ID NO: 3915: novel peptide capable of activating the signaling pathway for IFN-alpha (LRRAIWGLLCLMVAEENQEASLRKLAVRRKFWRLGRATQRYSVAW; listed as Homo sapiens)
[3]; FIG. 11
  activator of the IFN-alpha signaling pathway (grade in words): moderate activator
[3]; [6]
  Relative activity (compared to cytokine only controls), Cytokine IFN-a: +40%

## SEQ ID NO: 6091: novel peptide capable of inhibiting pro-inflammatory cytokine pathways (IFLFLPIFSFPQIFLLLFYHLE; listed as Homo sapiens)
[1]; FIG. 10
  inhibitor of the IL-15 signaling pathway (grade in words): strong inhibitor
[2]; [6]
  Relative activity (compared to cytokine only controls), Cytokine IL-4: −40%

## SEQ ID NO: 6516: novel, secreted peptide that inhibits the innate immune response caused by toll-like receptor agonists (MAAPSNKTELAWSPRLAA; listed as Homo sapiens)
[4]
  effect on T-cells, B-cells, and NK-cells (up/downregulated genes, scRNA-seq): relatively small effects
  effect on active monocytes and dendritic cells (up/downregulated genes, scRNA-seq): strongly affected
[5]; THP-1 dual reporter cells, peptide 0, 2.5, 5, 7.5, and 10 μM in the presence of LPS, 24 hours
  relative IRF activity (reporter gene expression): inhibition
[5]; [7]
  IRF response, co-treated with TLR1/2 agonist: inhibited
  IRF response, co-treated with TLR2 agonist: no significant effect
  IRF response, co-treated with TLR3 agonist: no significant effect
  IRF response, co-treated with TLR4 agonist: inhibited
  IRF response, co-treated with TLR5 agonist: no significant effect
  IRF response, co-treated with TLR6/2 agonist: inhibited
  IRF response, co-treated with TLR7 agonist: no significant effect
  IRF response, co-treated with TLR8 agonist: no significant effect
  IRF response, co-treated with TLR9 agonist: no significant effect
[5]; reporter cell line +/- TLR agonists
  IRF signal transduction pathway response from several TLRs: significantly blocks
